For the assay, the system named is LNCaP C-81 cells. Kind of assay: cell proliferation assay. Type of assay: cell-based, Human. The following applies: regular culture medium, 3 days treatment.

In the case of `O=C(NN=C1C=CC(=NOS(=O)(=O)c2ccccc2)C=C1)c1cc2ccccc2cc1O` [Compound A9], the inhibition of proliferation result is listed as “up to 70%”.
The same measure for `O=C(c1ccc(O)c(NC(=O)c2cccc3ccccc23)c1)c1ccc(O)c(NC(=O)c2cccc3ccccc23)c1` [Compound A36]: “about 32%”.

For the origin of these results see article PMC4150255 (Journal of medicinal chemistry, 2012).
